The results in this text go back to PMC6817881, “Antimalarial Quinoline Drugs Inhibit β-Hematin and Increase Free Hemin Catalyzing Peroxidative Reactions and Inhibition of Cysteine Proteases” (Scientific Reports, 2019).

The target of test [1] is T1, cathepsin B (Bos taurus, UniProt P07688).
T1 construct: gene CTSB; native commercial enzyme from bovine spleen (Sigma)
Nature of the test: RP-HPLC of released AMC. In kind it is biochemical. The following applies: 100 µM substrate, 37 °C, cysteine, globin, H2O2; hemin/chloroquine incubation medium.

Test [2] deals with T2, papain (Carica papaya, UniProt P00784).
T2 construct: native commercial enzyme (Sigma)
T2 sequence (P00784 134-345): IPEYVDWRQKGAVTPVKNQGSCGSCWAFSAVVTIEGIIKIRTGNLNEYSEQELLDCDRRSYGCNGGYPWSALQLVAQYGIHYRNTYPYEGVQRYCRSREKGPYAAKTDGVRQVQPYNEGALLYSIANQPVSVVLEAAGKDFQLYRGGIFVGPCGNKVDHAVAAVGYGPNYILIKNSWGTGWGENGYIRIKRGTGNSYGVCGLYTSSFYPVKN
Kind of test: RP-HPLC of released AMC. Type of test: biochemical. The following applies: pH 4.8 acetate, 37 °C, 100 µM substrate, cysteine; medium also held H2O2, hemin/chloroquine.

Residues, ends and D or L forms follow the SMILES beside them. *: point of attachment. AMC = Cc1cc(=O)oc2cc(N*)ccc12; Cbz = O=C(OCc1ccccc1)*

Take `Cc1cc(=O)oc2cc(NC(=O)[C@H](CCCNC(=N)N)NC(=O)[C@H](Cc3ccccc3)NC(=O)OCc3ccccc3)ccc12` [Z-Phe-Arg-AMC] (Cbz-Phe-Arg-{AMC}): the “RP-HPLC of released AMC” value in test [1] was “papain, ficin and cathepsin-B using Z-Phe-Arg-AMC peptide”; in test [2], “papain, ficin and cathepsin-B using Z-Phe-Arg-AMC peptide”.
